Patent US20180113128A1, “DETECTION OF URINARY TRACT INFECTIONS” (ISI Life Sciences, Inc., priority 2016, published 2018)

Experiments:
Format in all cases: biochemical
urease [1] = test: In vitro test demonstrating breakage of ester bonds (urea buffers with or without urease, 96 well); details: ten minutes
Excerpt: Two different fluorescein diesters were used in this example. These diesters were fluorescein dibutyrate and fluorescein dioctanoate both of which are commercially available or can be prepared by reacting fluorescein under conventional esterification techniques using as acid anhydrides, acid chlorides, etc. as described herein. The structure of fluorescein diesters is as set forth below:
A. Fluorescein dibutryate (each R is —CH2CH2CH2CH3) B. Fluorescein dioctanoate (each R is —CH2CH2CH2CH2CH2CH3) • The assay was conducted with the following: 1. Assay Buffer A: 0.5 M Urea in phosphate buffered saline, pH 7 (freshly prepared from solid urea). 2. Assay Buffer B: Assay Buffer A plus 0.05% bovine serum albumin 3. Urease: 2000 u/mL in phosphate buffered saline (PBS). This equates to about 40 mg per mL. 4. Fluorescein diesters are dissolved in water with 1% DMSO.
100 microliters of PBS, Assay Buffer A, or Assay Buffer B were added to wells of a 96 well cluster. • 10 microliters of urease were added to the indicated wells. • 5 microliters of each diester were added to each well.
The wells were monitored for ten minutes at which time a photograph was taken.

urease [2] = test: Second in vitro test: pro-label in normal human urine with or without urease; details: room temperature, approximately 10 minutes
Procedure: In this example, fluorescein dioctanoate (a non-fluorescent derivative of fluorescein and a pro-label) was combined with normal urine recently obtained from a volunteer. The urine was divided into two containers. The first container (A) contained fluorescein dioctanoate added as a 1% solution in DMSO. The second container (B) additionally contained urease.
Both samples were maintained at room temperature for approximately 10 minutes and the samples were then evaluated for fluorescence. As is well known, the fluorescence emitted by fluorescein is typically a greenish-yellow color.

leukocyte esterases = test: Fourth in vitro test: pro-label contacted with blood lysate
Excerpt: Certain E. coli species are a common cause of UTIs. […] So, unlike Example 3 where E. coli was used in the absence of blood components, this example evaluates the results of whether a blood lysate would deacylate the ester bonds of pro-labels. Specifically, this example evaluates if these esterases are present in sufficient quantities in the lysate to effect transformation of the pro-labels to labels by deacylation. Accordingly, fluorescein dioctanoate (a non-fluorescent pro-label) was contacted with a blood lysate. A control composition (phosphate buffered saline) containing the same pro-label was prepared. […] The first column contains the control and the second column contains the pro-labeled solution. This figure is taken at time equal to zero. […] As before, the left column is control and the right column is the blood lysate in the presence of fluorescein dioctanoate. […] As to the greenish tinge around the control test tubes, it is postulated that this is the result of reflection from the bright green fluorescence of the adjacent tubes (not shown). Those tubes were removed from FIG. 4 so as to allow a direct comparison between the control and fluorescein dioctanoate.

[3] = Buffer A: 0.5 M urea in PBS pH 7, no urease
[4] = Buffer B: Buffer A plus 0.05% bovine serum albumin, no urease

## CCCC(=O)Oc1ccc2c(c1)Oc1cc(OC(=O)CCC)ccc1C21OC(=O)c2ccccc21 [fluorescein dibutyrate]
Urease [1]; [3]
  fluorescence (photograph): no fluorescence
Urease [1]; Buffer B+urease
  fluorescence (photograph): fluorescence
Urease [1]; [4]
  fluorescence (photograph): minimal fluorescence

## CCCCCCCC(=O)Oc1ccc2c(c1)Oc1cc(OC(=O)CCCCCCC)ccc1C21OC(=O)c2ccccc21 [fluorescein dioctanoate]
Urease [1]; [3]
  fluorescence (photograph): no fluorescence
Urease [1]; Buffer B+urease
  fluorescence (photograph): fluorescence
Urease [1]; [4]
  fluorescence (photograph): no to substantially no fluorescence
Urease [2]; normal human urine plus urease (container B)
  fluorescein fluorescence in urine sample: presence of fluorescein fluorescence
Urease [2]; normal human urine, no urease (container A)
  fluorescein fluorescence in urine sample: lack of fluorescein fluorescence
Leukocyte esterases; blood lysate, incubation for 90 minutes
  fluorescence upon application of UV light: evidenced fluorescence
Leukocyte esterases; control composition (phosphate buffered saline) containing the same pro-label, 90 minutes
  fluorescence upon application of UV light: did not
